The subject of series [1] is skin graft donor sites. Briefly: Human patients, skin-graft donor site treated with TXA embedded dressings without a drain. Format: in vivo. As to the method: Human patients were treated with TXA embedded dressings. A 50 cm^2 partial thickness wound was generated with a dermatome, thereby creating the skin-graft donor site. […] Non-adherent sterile dressings (TIELLE™) were contacted with the solution and placed directly on the donor site dressing.
The wounds were covered with a semipermeable film ([…]™) without a drain. Normally a dermal drain is placed through the film into contact with the wound with the intention of collecting fluid. A total of 300 ml in 5 days is normally collected (60 ml per day=[…]).

For series [2], the system named is scald injuries. Kind of series: Scald injuries treated with similar TXA dressings. In kind it is in vivo, Human. As to the method:
In particular, a child with a scald was treated with TIELLE™ containing TXA and the dressing was removed after ten days.

In series [3] the test system is chronic ulcers. Kind of series: Chronic ulcers treated with similar TXA dressings. In kind it is in vivo, Human.
Series [4] concerns keratinocyte and fibroblast cell cultures. The note with it: short exposure to even high concentrations of topical TXA; cited from earlier work.
For series [5], the system named is rhytidoplasty (face lift). The note with it: local TXA irrigation; first twenty-four hours after rhytidoplasty; cited from earlier work.

Structures are written as SMILES. “Also recorded” adds a separate entry of the source.

`NC[C@H]1CC[C@H](C(=O)O)CC1` [TXA, tranexamic acid]: the amount of exudate result in series [1] (50 cm^2 partial thickness skin-graft donor site, one to two grams TXA in 10 ml normal saline on TIELLE dressing, TEGADERM film, no drain) is “reducing significantly the amount of exudate; also recorded: greatly reduce exudate”. In addition, the bleeding entry in series [1] (skin graft donor sites, topical TXA) was “little bleeding”; in series [5], “decrease bleeding”. For the same molecule, the “adverse effect of TXA” value in series [1] (skin-graft donor site, topical TXA dressing) was “no adverse effect”. Besides, the “re-epithelialization of the wound” value in series [1] (skin-graft donor site, at removal of original dressing (12-14 days, 8-16 days)) was “re-epithelialized skin surface without the need for placement of a further dressing; also recorded: In most cases the wound was fully epithelialized; also recorded: rapid and complete or near complete re-epithelialization”. Moreover, the reepithelization result in series [2] and in series [3] was “near complete reepithelization” in each case. In addition, in series [4], the tolerance in vitro entry was “well tolerated”. Besides, the drainage result in series [5] is recorded as “reduce drainage”.

The values are drawn from US20250195714A1, “DEVICES AND METHODS OF TREATING WOUNDS” (University of Massachusetts, priority 2022, published 2025).
